Measured values: patent US12115208B2, “Small-molecule adjuvants for antibiotics to address antibiotic resistance” (HIGH POINT UNIVERSITY, priority 2017, dated 2024)
pEC50: −log10 of the molar value.

Experiments:
Test in all cases: Biofilm dispersion assay
Type in all cases: cell-based
[1] = test system: S. aureus 29213 pre-formed biofilm; conditions: Staphylococcus aureus
Procedure: (§1) Overnight cultures of S. aureus or S. epidermidis were subcultured to an OD600 of 0.01 in tryptic soy broth supplemented with 0.5% glucose (TSBG). For USA300Δ/+stk1, TSBG was supplemented with 0.2% xylose to induce transcription of stk1. 100 μl of the culture was distributed into rows 2-11 of a 96-well polyvinylchloride plate. Rows 1 and 12 were filled with 100 μl of sterile water and served as the negative controls. […] After the incubation period, the media was discarded and the plates were washed with water to remove non-adherent cells. Media containing the desired concentrations of compound was prepared and 100 μl was added to the desired rows. Media alone was added as a positive control and sterile water was added as a negative control. The plates were sealed with Glad Press-n-Seal and incubated under stationary conditions for another 24 hours. The media was discarded and plates were washed with water to remove any non-adherent bacteria. 110 μl of an aqueous crystal violet solution (0.1%) was added to each well and allowed to rest at room temperature to stain any biomass. After 30 minutes, the crystal violet solution was discarded and the plates were washed with water. The stained biomass was dissolved in 95% ethanol (200 μl) for 30 minutes and 125 μl was transferred to the corresponding wells of a flat-bottomed polystyrene 96-well plate. The absorbance of each well was measured at 540 nm. The wells that contained only water were used as background and subtracted from wells containing cultures.
(§2) Biofilm dispersion was quantified by calculating the ratio of the absorbance of the treated wells as compared to the untreated wells. These values were plotted and fit to a curve to determine the EC50.
(§3) Loratadine was also tested for the ability to disperse pre-formed biofilms. Biofilm dispersion is reported as an EC50, which is defined as the concentration of compound required to disperse 50% of the preformed biofilm.

[2] = test system: S. aureus USA100 pre-formed biofilm; conditions: Staphylococcus aureus, S. aureus USA100 (MRSA)
Procedure: as §1, §2, §3

[3] = test system: S. aureus 43300 pre-formed biofilm; conditions: Staphylococcus aureus, S. aureus 43300 (MRSA)
Procedure: as §1, §2, §3

[4] = test system: S. aureus USA300 pre-formed biofilm; conditions: Staphylococcus aureus, S. aureus USA300 (MRSA)
Procedure: as §1, §2, §3

- pEC50 [1]: < 3.70
- pEC50 [2]: 3.92
- pEC50 [3]: < 3.70
- pEC50 [4]: < 3.70
Compound: CCOC(=O)N1CCC(=C2c3ccc(Cl)cc3CCc3cccnc32)CC1 [Loratadine, ethyl 4-(8-chloro-5,6-dihydrobenzo[1,2]cyclohepta[2,4-b]pyridin-11-ylidene)piperidine-1-carboxylate]
